Patent US12357603B2, “Acyl sulfonamides for treating cancer” (Bayer Aktiengesellschaft, priority 2019, dated 2025)

What was measured:
[1] = biological target: Recombinant human His-tagged Kat6a protein (amino acids 194-810) (Homo sapiens (Human), UniProt Q92794); test: Kat6a activity assay (TR-FRET, acetylation of biotinylated Histone-H4-derived peptide); type: biochemical; conditions: 60 mins at 22° C., read-out: KAT6A-DPF/HAT domain IC50 [mol/l] (arithmetic mean)
In short: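 Sf9-expressed human His-Kat6a (aa 194-810) incubated 60 min at 22 °C with compounds (0.01-20 μM) in Tris pH 8 buffer containing 220 nM biotinylated H4 peptide (aa 1-24) and 600 nM acetyl-CoA. Acetyl-K8 detected by TR-FRET (665/620 nm ratio); IC50 by four-parameter fit versus DMSO controls.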

[2] = test system: ESR1 transcription (luciferase signal in MVLN cells); test: Repression of ESR1 transcription, luciferase reporter in MVLN cells; type: cell-based; conditions: Homo sapiens, MVLN, inhibition of luciferase signal in MVLN cells; arithmetic mean
In short: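 MVLN cells (constitutive ER, stably carrying a Vitellogenin A2 hormone-responsive element–luciferase reporter) treated in duplicate; luciferase read after 24 h. Cell density checked by Alamar Blue fluorescence (530/590 nm) after 2 h to exclude cell-loss effects.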

[3] = test system: ZR-75-1 cells; test: Proliferation assay ZR-75-1 (Alamar Blue, 144 h); type: cell-based; conditions: Homo sapiens, ZR-75-1, 144 h, arithmetic mean, read-out: ZR75-1 proliferation assay, EC50 [M] (arithmetic mean)
In short: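 Cells seeded at 3000/well in RPMI 1640 with 2.5% FBS and treated 24 h later across 2.0×10E-5 to 2.0×10E-9 M (9 dilutions, 0.2% DMSO, triplicate). After 144 h at 37 °C, 5% CO2, viability read by Alamar Blue fluorescence at 590 nm following 2 h reagent incubation.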

[4] = test system: MDA-MB-436 cells; test: Proliferation assay MDA-MB-436, negative control cell line (Alamar Blue, 144 h); type: cell-based; conditions: Homo sapiens, MDA-MB-436, 144 h, arithmetic mean
From the text: Proliferation Assays for Compound Characterization
For compound characterization cell survival assays were routinely run in two cell lines. ZR-75-1 is a breast carcinoma cell line containing a focal KAT6A amplification and high KAT6A protein expression. Proliferation of this cell line is inhibited upon treatment with KAT6A inhibitors. As a negative control cell line MDA-MB-436 were used. These cells carry a […] deletion of the KAT6A gene, have a low KAT6A protein expression and are not growth inhibited upon treatment with KAT6A inhibitors.
For measurements cell lines were plated at the below indicated concentration per […] in 96-well plates in a humidified incubator at 37° C. and 5% CO2.
MDA-MB-436 (CLS, 300278; breast adenocarcinoma); 3000 cells per well; culture medium: DMEM/Ham's F12 (Biochrom #FG 4815) medium containing 2.5% FBS (Biochrom #S0615).
24 hours later, cells were treated with compounds (stock solution, 10 mM in DMSO) using the HP D300 Digital Dispenser in a concentration range of 2.0×10E-5 M to 2.0×10E-9 M in a single-dot curve with 9 dilutions and a DMSO concentration of 0.2%. Each sample was prepared as triplicate and rim wells were excluded. Plates were incubated at 37° C. and 5% CO2 for 144 h. Cell viability was measured by adding 10 μL of Alamar Blue Reagent (Invitrogen #DAL 1100) and plates were incubated for 2 h at 37° C. and 5% CO2. Fluorescence was measured at 590 nm wavelength with a Tecan Spark or Victor X3 MTP-Reader (PerkinElmer).

Sequence of Recombinant human His-tagged Kat6a protein (amino acids 194-810) (Q92794 194-810): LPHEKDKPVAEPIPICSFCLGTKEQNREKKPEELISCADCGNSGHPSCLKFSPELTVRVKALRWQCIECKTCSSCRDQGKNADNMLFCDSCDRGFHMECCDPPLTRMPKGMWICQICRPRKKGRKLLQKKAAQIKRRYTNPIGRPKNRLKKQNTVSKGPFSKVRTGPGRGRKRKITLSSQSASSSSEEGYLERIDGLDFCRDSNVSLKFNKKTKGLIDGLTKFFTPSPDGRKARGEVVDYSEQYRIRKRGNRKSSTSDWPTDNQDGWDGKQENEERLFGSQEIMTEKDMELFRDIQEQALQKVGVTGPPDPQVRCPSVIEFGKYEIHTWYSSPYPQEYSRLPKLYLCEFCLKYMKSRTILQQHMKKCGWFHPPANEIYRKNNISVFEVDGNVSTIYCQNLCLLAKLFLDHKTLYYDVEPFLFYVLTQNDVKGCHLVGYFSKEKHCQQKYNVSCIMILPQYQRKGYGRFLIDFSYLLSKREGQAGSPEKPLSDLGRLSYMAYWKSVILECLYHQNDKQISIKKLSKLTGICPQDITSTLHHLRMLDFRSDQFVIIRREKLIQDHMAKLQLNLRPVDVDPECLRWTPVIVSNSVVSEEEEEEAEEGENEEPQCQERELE

IC50 [1]	IC50 [2]	EC50 [4]	Structure (SMILES)	EC50 [3]
1850 nM	891 nM	> 20000 nM	CCOc1nccc(C(F)(F)F)c1S(=O)(=O)NC(=O)c1cc2ccc(N(C)C)cc2o1 [Example 120, 6-(Dimethylamino)-N-[2-ethoxy-4-(trifluoromethyl)pyridine-3-sulfonyl]-1-benzofuran-2-carboxamide]	4.57e-07 M
252 nM	453 nM	> 20000 nM	CCOc1c(Cl)cccc1S(=O)(=O)NC(=O)c1cc2ccc(N(C)C)cc2o1 [Example 122, N-(3-Chloro-2-ethoxybenzene-1-sulfonyl)-6-(dimethylamino)-1-benzofuran-2-carboxamide]	9.44e-07 M
351 nM	7800 nM	> 20000 nM	CCOc1ccc(NC(C)=O)cc1S(=O)(=O)NC(=O)c1cc2ccc(N(C)C)cc2o1 [Example 128, N-(5-Acetamido-2-ethoxybenzene-1-sulfonyl)-6-(dimethylamino)-1-benzofuran-2-carboxamide]	1.49e-06 M
2180 nM	4360 nM	15100 nM	Cc1ccc(S(=O)(=O)NC(=O)c2cc3ccc(N(C)C)cc3o2)c(N)n1 [Example 130, N-(2-Amino-6-methylpyridine-3-sulfonyl)-6-(dimethylamino)-1-benzofuran-2-carboxamide]	2.93e-06 M
470 nM	325 nM	> 20000 nM	CCc1ncnc(OC)c1S(=O)(=O)NC(=O)c1cc2ccc(N(C)C)cc2o1 [Example 131, 6-(Dimethylamino)-N-(4-ethyl-6-methoxypyrimidine-5-sulfonyl)-1-benzofuran-2-carboxamide]	8.31e-07 M
325 nM	323 nM	> 20000 nM	CCCOc1cccc(C)c1S(=O)(=O)NC(=O)c1cc2ccc(N(C)C)cc2o1 [Example 133, 6-(Dimethylamino)-N-(2-methyl-6-propoxybenzene-1-sulfonyl)-1-benzofuran-2-carboxamide]	4.88e-07 M
796 nM	15400 nM	> 20000 nM	CN(C)c1ccc2cc(C(=O)NS(=O)(=O)c3cc(Br)cnc3Cl)oc2c1 [Example 136]	5.54e-06 M
5670 nM	9650 nM	> 20000 nM	COc1cccc(S(C)(=O)=O)c1S(=O)(=O)NC(=O)c1cc2ccc(N(C)C)cc2o1 [Example 140, 6-(Dimethylamino)-N-[2-(methanesulfonyl)-6-methoxybenzene-1-sulfonyl]-1-benzofuran-2-carboxamide]	7.83e-06 M
317 nM	1760 nM	> 20000 nM	COc1cccc(S(=O)(=O)N(C)C)c1S(=O)(=O)NC(=O)c1cc2ccc(N(C)C)cc2o1 [Example 141, 6-(Dimethylamino)-N-[2-(dimethylsulfamoyl)-6-methoxybenzene-1-sulfonyl]-1-benzofuran-2-carboxamide]	1.92e-06 M
438 nM	6800 nM	> 20000 nM	CC(C)Nc1ncc(Br)cc1S(=O)(=O)NC(=O)c1cc2ccc(N(C)C)cc2o1 [Example 145, N-{5-Bromo-2-[(propan-2-yl)amino]pyridine-3-sulfonyl}-6-(dimethylamino)-1-benzofuran-2-carboxamide]	7.2e-06 M
266 nM	5160 nM	> 20000 nM	CN(C)c1ccc2cc(C(=O)NS(=O)(=O)c3cc(Br)cnc3NC3CC3)oc2c1 [Example 146, N-[5-Bromo-2-(cyclopropylamino)pyridine-3-sulfonyl]-6-(dimethylamino)-1-benzofuran-2-carboxamide]	3.73e-06 M
429 nM	8290 nM	10200 nM	CCCNc1ncc(Br)cc1S(=O)(=O)NC(=O)c1cc2ccc(N(C)C)cc2o1 [Example 150, N-[5-bromo-2-(propylamino)pyridine-3-sulfonyl]-6-(dimethylamino)-1-benzofuran-2-carboxamide]	> 2e-05 M
234 nM	9850 nM	> 20000 nM	Cc1cccc(Nc2ccncc2S(=O)(=O)NC(=O)c2cc3ccc(N(C)C)cc3o2)c1 [Example 151, 6-(Dimethylamino)-N-[4-(3-methylanilino)pyridine-3-sulfonyl]-1-benzofuran-2-carboxamide]	2.87e-06 M
1400 nM	2930 nM	> 20000 nM	COc1ccc(S(=O)(=O)NC(=O)c2cc3ccc(N(C)C)cc3o2)cn1 [Example 152, 6-(Dimethylamino)-N-(6-methoxypyridine-3-sulfonyl)-1-benzofuran-2-carboxamide]	2.16e-06 M
56.4 nM	150 nM	6310 nM	CN(C)c1ccc2cc(C(=O)NS(=O)(=O)c3ccc(N)c4cccnc34)oc2c1 [Example 166, N-(5-Aminoquinoline-8-sulfonyl)-6-(dimethylamino)-1-benzofuran-2-carboxamide]	1.5e-07 M
2060 nM	9100 nM	> 20000 nM	CN(C)c1ccc2cc(C(=O)NS(=O)(=O)c3ccccc3OCCN)oc2c1 [Example 167, N-[2-(2-Aminoethoxy)benzene-1-sulfonyl]-6-(dimethylamino)-1-benzofuran-2-carboxamide hydrogen chloride (1/1)]	9.52e-06 M
128 nM	8600 nM	> 20000 nM	CN(C)c1ccc2cc(C(=O)NS(=O)(=O)c3ccccc3OCCOCCOCCOCCNc3ccc([N+](=O)[O-])c4nonc34)oc2c1 [Example 168, 6-(Dimethylamino)-N-(2-{2-[2-(2-{2-[(7-nitro-2,1,3-benzoxadiazol-4-yl)amino]ethoxy}ethoxy)ethoxy]ethoxy}benzene-1-sulfonyl)-1-benzofuran-2-carboxamide]	1.24e-05 M
54 nM	72.3 nM	> 20000 nM	CCOc1ccc(C(F)(F)F)cc1S(=O)(=O)NC(=O)c1cc2ccc(N(C)C)cc2o1 [Example 172, 6-(Dimethylamino)-N-[2-ethoxy-5-(trifluoromethyl)phenyl]sulfonyl-benzofuran-2-carboxamide]	8.08e-08 M
97.3 nM	67.4 nM	> 20000 nM	CCOc1ccc(F)cc1S(=O)(=O)NC(=O)c1cc2ccc(N(C)C)cc2o1 [Example 173, 6-(Dimethylamino)-N-(2-ethoxy-5-fluoro-phenyl)sulfonyl-benzofuran-2-carboxamide]	1.1e-07 M
12.8 nM	34.8 nM	19500 nM	CC(C)c1ccc(OCc2ccccc2)c(S(=O)(=O)NC(=O)c2cc3ccc(N(C)C)cc3o2)c1 [Example 176, N-(2-Benzyloxy-5-isopropyl-phenyl)sulfonyl-6-(dimethylamino)benzofuran-2-carboxamide]	9.71e-08 M
11 nM	69.6 nM	> 20000 nM	CC(C)c1ccc(OCC(F)(F)F)c(S(=O)(=O)NC(=O)c2cc3ccc(N(C)C)cc3o2)c1 [Example 178, 6-(Dimethylamino)-N-[5-isopropyl-2-(2,2,2-trifluoroethoxy)phenyl]sulfonyl-benzofuran-2-carboxamide]	8.65e-08 M
15.4 nM	45.5 nM	> 20000 nM	CC(C)Oc1ccc(C(C)(C)C)cc1S(=O)(=O)NC(=O)c1cc2ccc(N(C)C)cc2o1 [Example 183, N-((5-(tert-butyl)-2-isopropoxyphenyl)sulfonyl)-6-(dimethylamino)benzofuran-2-carboxamide]	7.53e-08 M
